The results in this text go back to patent publication US9815841B2, “Compounds” (GLAXOSMITHKLINE INTELLECTUAL PROPERTY DEVELOPMENT LIMITED, priority 2014, dated 2017).

The test has as its target T1, purified recombinant 6HIS-Tev-LRRK2 (1326-2527) (Homo sapiens, UniProt Q5S007).
T1 construct: A LRRK2 cDNA encoding residues 1326-2527 was received from Dundee University; made in house; host or cells: Spodoptera frugiperda (Sf9) insect cells, baculovirus (pFB-HTb)
T1 sequence (Q5S007 1326-2527): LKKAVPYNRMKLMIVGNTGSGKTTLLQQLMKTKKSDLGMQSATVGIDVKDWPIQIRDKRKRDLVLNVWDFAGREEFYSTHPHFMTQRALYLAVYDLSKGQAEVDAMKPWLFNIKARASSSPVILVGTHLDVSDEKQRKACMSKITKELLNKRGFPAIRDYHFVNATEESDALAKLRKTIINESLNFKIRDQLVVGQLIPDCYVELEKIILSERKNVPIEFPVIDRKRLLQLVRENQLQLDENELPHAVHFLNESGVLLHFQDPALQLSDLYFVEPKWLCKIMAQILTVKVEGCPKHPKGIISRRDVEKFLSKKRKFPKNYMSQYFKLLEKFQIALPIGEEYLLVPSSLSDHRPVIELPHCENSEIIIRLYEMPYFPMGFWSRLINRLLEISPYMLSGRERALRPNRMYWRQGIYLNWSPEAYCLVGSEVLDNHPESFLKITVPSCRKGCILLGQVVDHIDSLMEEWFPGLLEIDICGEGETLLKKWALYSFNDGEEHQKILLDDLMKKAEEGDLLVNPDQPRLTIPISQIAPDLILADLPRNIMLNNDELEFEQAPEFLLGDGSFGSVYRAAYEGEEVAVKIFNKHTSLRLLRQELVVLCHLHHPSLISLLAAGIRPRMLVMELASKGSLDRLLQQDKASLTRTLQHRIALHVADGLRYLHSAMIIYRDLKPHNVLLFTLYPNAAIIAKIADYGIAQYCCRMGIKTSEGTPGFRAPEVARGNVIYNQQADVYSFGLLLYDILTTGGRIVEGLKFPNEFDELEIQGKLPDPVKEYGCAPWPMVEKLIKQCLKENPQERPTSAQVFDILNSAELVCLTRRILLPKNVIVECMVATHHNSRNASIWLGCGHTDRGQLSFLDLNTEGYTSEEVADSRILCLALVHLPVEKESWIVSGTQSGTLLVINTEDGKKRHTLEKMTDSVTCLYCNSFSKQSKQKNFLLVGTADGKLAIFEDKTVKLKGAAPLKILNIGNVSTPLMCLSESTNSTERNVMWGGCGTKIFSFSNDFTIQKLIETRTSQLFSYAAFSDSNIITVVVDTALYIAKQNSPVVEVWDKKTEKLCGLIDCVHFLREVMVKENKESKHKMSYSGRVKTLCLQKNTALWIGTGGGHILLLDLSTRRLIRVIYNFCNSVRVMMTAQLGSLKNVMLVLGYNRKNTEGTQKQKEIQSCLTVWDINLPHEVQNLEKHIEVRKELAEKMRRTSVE
As to the kind of experiment: Recombinant LRRK2 enzyme peptide substrate TR-FRET assay. The test is classed as biochemical. Conditions: 60 nM LRRK2 (1326-2527), 1 uM Biotin-longer LRRKtide, 10 uM ATP; read-out: recombinant LRRK2 enzyme peptide substrate TR-FRET assay (pIC50) (converted). The protocol: This gene fragment was subcloned into pFB-HTb (Invitrogen) using BamHI and NotI restriction sites. The LRRK2 plasmid was recombined into the baculovirus genome according to the BAC-to-BAC protocol described by Invitrogen. Transfection into Spodoptera frugiperda (Sf9) insect cells was performed using Cellfectin (Invitrogen), according to the manufacturer's protocol to generate P1 and P2 baculovirus stocks.
Sf9 cells were grown in HyClone SFX (Thermo Scientific) growth media at 27° C., 80 rpm in shake flask until of a sufficient volume to inoculate a bioreactor. […] The cells were infected with P2 Baculovirus at a multiplicity of infection (MOI) of 3. The cultivation was continued for a 48 hour expression phase. The infected cells were removed from the growth media by centrifugation at 2500 g using a Sorvall RC 3C Plus centrifuge at 2500 g for 20 minutes. The cell pellet was immediately frozen and subsequently supplied for purification.
A 260 g pellet was allowed to thaw in a water bath at 27° C. with 800 ml lysis buffer/buffer A (50 mm Tris-HCl pH 8.5, 300 mM NaCl, 1 mm DTT, 10% glycerol, 1 ml/L calbiochem complete protease inhibitor cocktail and benzonase (50 ul/800 ml)) before being dounce homogenised on ice using 20 strokes per 100 ml. The suspension was packed in ice and sonicated at 50% amplitude for 3 min 10 sec on/off using a ¾″ probe. The suspension was then centrifuged at 100,000 g for 90 min, at 4° C.
The lysate (700 ml) was decanted from the insoluble pellet and contacted for 3 h at 4 C with 10 ml His bind Ni NTA resin by end over end mixing. The resin was recovered by centrifugation, 3000 g, 5 min at 4 C, and packed in an XK16 column. The column was then washed with 10 column volumes buffer A, 10 column volumes buffer B (buffer A+1M NaCl) and 10 column volumes buffer C (buffer A+20 mM imidazole). The column was then eluted with 15 column volumes buffer D (buffer A+300 mM imidazole) collecting 2 ml fractions. All washes and elution were conducted at 4 ml/min.
Fractions identified by SDS-PAGE as containing protein of interest were pooled and loaded directly onto a 320 ml SEC Superdex 200 pg column that was pre-equilibrated with buffer E (50 mM Tris-HCl pH 8.5, 300 mM NaCl, 10% glycerol, 1 mM DTT). The column was loaded and eluted with 1.2 column volumes buffer E at 2 ml/min collecting 2 ml fractions. Fractions identified by SDS-PAGE as containing protein of interest were tested for activity.
Production of Biotin-Longer LRRKtide
The resulting crude peptide was cleaved from the resin using a 95:2.5:2.5 mix of trifluoroacetic acid:triisopropylsilane:water.
Recombinant LRRK2 Enzyme Peptide Substrate TR-FRET Assay
Assay Protocol • 1. A 10 mM test compound was dissolved in 100% DMSO and serially diluted 1 in 4. 100 nL was then added to a 384 well low volume black plate, excluding columns 6 and 18. 100 nL of DMSO was added to columns 6 and 18 as controls wells. […] Test plates were then incubated for 30 minutes at room temperature. • 3. 3 uL ‘substate solution’ containing 2 uM Biotin-longer LRRKtide peptide substrate and 20 uM ATP was added to all wells of the plate using a multidrop combi dispenser giving a final assay concentration of 1 uM Biotin-longer LRRKtide and 10 uM ATP. Test plates were then incubated for 2 hours at room temperature. (Incubation may vary depending on rate and linearity of reaction with different enzyme batches). • 4. […] Data is analysed using ActivityBase software (IDBS). Dilutions and concentrations of reagents determined on a batch to batch basis
(In TR-FRET formats the signal depends on donor and acceptor labels being close together.)
With `CCOc1nc(Nc2ccc(C(=O)N3CC4CC4(CO)C3)cc2OC)nc2[nH]ccc12` (single isomer, unassigned) [Example E46, (4-((4-ethoxy-7H-pyrrolo-[2,3-d]-pyrimidin-2-yl)amino)-3-methoxyphenyl)(1-(hydroxymethyl)-3-azabicyclo-[3.1.0]-hexan-3-yl)methanone], the IC50 was at most 0.01 µM. For `CCOc1nc(Nc2ccc(C(=O)N3CCC4(CC3)CC4COC)cc2OC)nc2[nH]ccc12` (single isomer, unassigned) [Example E52, (4-((4-ethoxy-7H-pyrrolo-[2,3-d]-pyrimidin-2-yl)amino)-3-methoxyphenyl)(1-(methoxymethyl)-6-azaspiro-[2.5]-octan-6-yl)methanone], the IC50 is at most 0.01 µM.

For the compound `CCOc1nc(Nc2ccc(C(=O)N3CC4CC4(COC)C3)cc2OC)nc2[nH]ccc12` (single isomer, unassigned) [Example E64, (4-((4-ethoxy-7H-pyrrolo-[2,3-d]pyrimidin-2-yl)amino)-3-methoxyphenyl)-(1-(methoxymethyl)-3-azabicyclo[3.1.0]hexan-3-yl)methanone], the IC50 was at most 0.01 µM. For `CCOc1nc(Nc2cc(F)c(C(=O)N3CCN(C)CC3)cc2OC)nc2[nH]ccc12` [Example E5, (4-((4-ethoxy-7H-pyrrol-[2,3-d]pyrimidin-2-yl)amino)-2-fluoro-5-methoxyphenyl)(4-methylpiperazin-1-yl)-methanone] the value was at most 0.01 µM. Take `CCOc1nc(Nc2ccc(C(=O)N3CCN(C)CC3)cc2OC(F)F)nc2[nH]ccc12` [Example E7, (3-(difluoromethoxy)-4-((4-ethoxy-7H-pyrrolo-[2,3-d]-pyrimidin-2-yl)amino)phenyl)(4-methylpiperazin-1-yl)-methanone]: the IC50 is at most 0.01 µM.

`CCOc1nc(Nc2ccc(C(=O)N3CCN(C)CC3)cc2OCC2CC2)nc2[nH]ccc12` [Example E8, (3-(cyclopropylmethoxy)-4-((4-ethoxy-7H-pyrrolo-[2,3-d]-pyrimidin-2-yl)amino)phenyl)(4-methylpiperazin-1-yl)-methanone]: the IC50 is at most 0.01 µM. Under `CCOc1cc(C(=O)N2CCN(C)CC2)ccc1Nc1nc(OCC)c2cc[nH]c2n1` [Example E25, (3-ethoxy-4-((4-ethoxy-7H-pyrrolo-[2,3-d]pyrimidin-2-yl)amino)phenyl)(4-methylpiperazin-1-yl)methanone] stands at most 0.01 µM; under `CCOc1nc(Nc2ccc(C(=O)N3CCN(C)[C@H](C)C3)cc2OC)nc2[nH]ccc12` [Example E29, (R)-(3,4-dimethylpiperazin-1-yl)-(4-((4-ethoxy-7H-pyrrolo-[2,3-d]-pyrimidin-2-yl)amino)-3-methoxyphenyl)methanone], at most 0.01 µM; under `CCOc1nc(Nc2ccc(C(=O)N3CCC[C@@H]3COC)cc2OC)nc2[nH]ccc12` [Example E35, (R)-(4-((4-ethoxy-7H-pyrrolo-[2,3-d]pyrimidin-2-yl)amino)-3-methoxyphenyl)(2-(methoxymethyl)pyrrolidin-1-yl)methanone], at most 0.01 µM. Take `CCOc1nc(Nc2ccc(C(=O)N3CCC(F)CC3)cc2OC)nc2[nH]ccc12` [Example E36, (4-((4-ethoxy-7H-pyrrolo-[2,3-d]pyrimidin-2-yl)amino)-3-methoxyphenyl)(4-fluoropiperidin-1-yl)methanone]: the IC50 was at most 0.01 µM. Turning to `CCOc1nc(Nc2ccc(C(=O)N3CCN(C)[C@@H](C)C3)cc2OC)nc2[nH]ccc12` [Example E41, (S)-(3,4-dimethylpiperazin-1-yl)(4-((4-ethoxy-7H-pyrrolo-[2,3-d]-pyrimidin-2-yl)amino)-3-methoxyphenyl)methanone], the IC50 is at most 0.01 µM.

For the compound `CCOc1nc(Nc2ccc(C(=O)N3CCC(COC)CC3)cc2OC)nc2[nH]ccc12` [Example E42, (4-((4-ethoxy-7H-pyrrolo-[2,3-d]-pyrimidin-2-yl)amino)-3-methoxyphenyl)(4-(methoxymethyl)piperidin-1-yl)methanone], the IC50 was at most 0.01 µM. Under `CCOc1nc(Nc2ccc(C(=O)N3CCCC4(COC4)C3)cc2OC)nc2[nH]ccc12` [Example E44, (4-((4-ethoxy-7H-pyrrolo-[2,3-d]pyrimidin-2-yl)amino)-3-methoxyphenyl)(2-oxa-6-azaspiro-[3.5]nonan-6-yl)methanone] stands at most 0.01 µM; under `CCOc1nc(Nc2ccc(C(=O)N3[C@H](C#N)C[C@@H]4C[C@@H]43)cc2OC)nc2[nH]ccc12` [Example E66, (1 S,3S,5S)-2-(4-((4-ethoxy-7H-pyrrolo-[2,3-d]pyrimidin-2-yl)amino)-3-methoxybenzoyl)-2-azabicyclo-[3.1.0]-hexane-3-carbonitrile], at most 0.01 µM.
